Experiments:
Assay type in all cases: in vivo
[1] = test system: Pseudoperonospora cubensis (downy mildew); test: Greenhouse Test 1, foliar spray fungicide screen (DOWN MDEW), host squash; conditions: disease control rating, 400 ppm (+++ at 100 ppm)
[2] = test system: Twospotted spider mites (Tetranychus urticae Koch); test: Mite/insect screen, sprayed squash cotyledons (SM); conditions: percent mortality; for mortality at 200 ppm / mortality at 400 ppm: Tetranychus urticae, read-out: SM RESULTS %; for mortality at 200 ppm: spray rate 200 ppm; for mortality at 400 ppm: spray rate 400 ppm; for SM RESULTS %: rate not given
Method in brief: (§1)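 Compounds dissolved in acetone/alcohol with TOXIMUL R/S emulsifiers, diluted with water to test concentrations, and sprayed to runoff on both leaf surfaces at 10 psi, then dried 1 h. Excised treated squash leaves given southern armyworm larvae; aphid and spider mite tests on sprayed squash cotyledons. Percent mortality and phytotoxicity scored after standard exposure.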

[3] = test system: Puccinia recondita tritici (leaf rust); test: Greenhouse Test 1, foliar spray fungicide screen (LEAF RUST), host wheat; conditions: disease control rating, 400 ppm (+++ at 100 ppm)
[4] = test system: Pyricularia oryzae (rice blast); conditions: disease control rating, foliar spray, host rice; 400 ppm (+++ at 100 ppm)
[5] = test system: Erysiphe graminis tritici (powdery mildew); test: Greenhouse Test 1, foliar spray fungicide screen (POWD MDEW), host wheat; conditions: disease control rating, 400 ppm (+++ at 100 ppm)
[6] = test system: melon aphids (Aphis gossypii Glover); test: Mite/insect screen, sprayed squash cotyledons (MA); conditions: percent mortality; for mortality at 200 ppm / mortality at 400 ppm: Aphis gossypii, read-out: MA RESULTS %; for mortality at 200 ppm: spray rate 200 ppm; for mortality at 400 ppm: spray rate 400 ppm; for MA RESULTS %: rate not given
Method in brief: as §1

[7] = test system: southern armyworm (Spodopetra eridania Cramer); test: Mite/insect screen, sprayed squash leaves (SAW); conditions: percent mortality; for mortality at 200 ppm / mortality at 400 ppm: Spodoptera eridania, read-out: SAW RESULTS %; for mortality at 200 ppm: spray rate 200 ppm; for mortality at 400 ppm: spray rate 400 ppm; for SAW RESULTS %: rate not given
Method in brief: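 Percent mortality and phytotoxicity are the read-outs, assessed after standard exposure periods. Test solutions, made in 50:50 acetone/alcohol with two sulfonate/nonionic emulsifier blends and diluted in water, are sprayed to runoff on both leaf surfaces, which then dry for one hour.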

[8] = test system: Southern corn rootworm (Diabrotica undecimpuctata howardi Barber); test: Mite/insect screen, soil treatment (CRW); conditions: percent mortality; for mortality at 12 ppm / mortality at 24 ppm: Diabrotica, soil treatment, read-out: CRW RESULTS %; for mortality at 12 ppm: CRW rate 12.00 ppm; for mortality at 24 ppm: CRW rate 24.00 ppm; for CRW RESULTS %: rate not given
Method in brief: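 Compounds dissolved in acetone/alcohol (50:50) with Toximul R/S emulsifiers, diluted with water. Soil (15 g, with presoaked corn seed) treated with 1 mL test solution, dried 6–12 h, then five 2–3 instar larvae added; held at 23°C. Percent mortality and phytotoxicity scored after standard exposure periods.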

[9] = test system: Botrytis cinerea (gray mold); test: Greenhouse Test 1, foliar spray fungicide screen (GRAY MOLD), host grape berries; conditions: disease control rating, 400 ppm (+++ at 100 ppm)

## Fc1cccc2c(NCCc3ccc(Oc4ccccc4)cc3)ncnc12 [Example 101, 8-fluoro-N-[2-(4-phenoxyphenyl)ethyl]-4-quinazolinamine]
[1]
  DOWN MDEW: +++ (+++ = 90-100% control at 100 ppm)
[2]
  mortality at 200 ppm: 100%
  mortality at 400 ppm: 100%
[3]
  LEAF RUST: - (- = 0-19% control at 400 ppm)
[4]
  RICE BLAST: +++ (+++ = 90-100% control at 100 ppm)
[5]
  POWD MDEW: + (+ = 20-89% control at 400 ppm)
[6]
  mortality at 200 ppm: 80%
  mortality at 400 ppm: 100%
[7]
  mortality at 200 ppm: 100%
  mortality at 400 ppm: 0%
[8]
  mortality at 12 ppm: 100%
  mortality at 24 ppm: 0%
[9]
  GRAY MOLD: ++ (++ = 90-100% control at 400 ppm)

## Clc1cccc(CCOc2ncnc3ccccc23)c1 [Example 41, 4-[2-(3-chlorophenyl)ethoxy]quinazoline]
[1]
  DOWN MDEW: +++ (+++ = 90-100% control at 100 ppm)
[2]
  mortality at 400 ppm: 80%
  SM RESULTS %: 0%
[3]
  LEAF RUST: +++ (+++ = 90-100% control at 100 ppm)
[4]
  RICE BLAST: ++ (++ = 90-100% control at 400 ppm)
[5]
  POWD MDEW: +++ (+++ = 90-100% control at 100 ppm)
[6]
  mortality at 400 ppm: 80%
  MA RESULTS %: 100%
[7]
  mortality at 400 ppm: 0%
  SAW RESULTS %: 0%
[8]
  mortality at 24 ppm: 0%
  CRW RESULTS %: 0%
[9]
  GRAY MOLD: - (- = 0-19% control at 400 ppm)

## CC(C)(C)c1ccc(CCNc2ncnc3c(F)cccc23)cc1 [Example 100, 8-fluoro-N-[2-[4-(t-butyl)phenyl]ethyl]-4-quinazolinamine]
[1]
  DOWN MDEW: +++ (+++ = 90-100% control at 100 ppm)
[2]
  mortality at 200 ppm: 80%
  mortality at 400 ppm: 0%
[3]
  LEAF RUST: +++ (+++ = 90-100% control at 100 ppm)
[4]
  RICE BLAST: +++ (+++ = 90-100% control at 100 ppm)
[5]
  POWD MDEW: +++ (+++ = 90-100% control at 100 ppm)
[6]
  mortality at 200 ppm: 80%
  mortality at 400 ppm: 0%
[7]
  mortality at 200 ppm: 80%
  mortality at 400 ppm: 0%
[8]
  mortality at 12 ppm: 0%
  mortality at 24 ppm: 100%
[9]
  GRAY MOLD: - (- = 0-19% control at 400 ppm)

## FC(F)(F)c1cccc(Oc2ccc(CCOc3ncnc4ccccc34)cc2)c1 [Example 188, 4-[2-[4-[3-(trifluoromethyl)phenoxy]phenyl]ethoxy]quinazoline]
[1]
  DOWN MDEW: +++ (+++ = 90-100% control at 100 ppm)
[2]
  mortality at 200 ppm: 100%
[3]
  LEAF RUST: +++ (+++ = 90-100% control at 100 ppm)
[4]
  RICE BLAST: +++ (+++ = 90-100% control at 100 ppm)
[5]
  POWD MDEW: +++ (+++ = 90-100% control at 100 ppm)
[6]
  mortality at 200 ppm: 100%
  mortality at 400 ppm: 80%
[7]
  mortality at 200 ppm: 0%
  mortality at 400 ppm: 80%
[8]
  mortality at 12 ppm: 0%
  mortality at 24 ppm: 100%
[9]
  GRAY MOLD: - (- = 0-19% control at 400 ppm)

## COc1ccc(CCOc2ncnc3ccccc23)cc1OC [Example 73, 4-[2-(3,4-dimethoxyphenyl)ethoxy]quinazoline]
[1]
  DOWN MDEW: +++ (+++ = 90-100% control at 100 ppm)
[2]
  mortality at 400 ppm: 0%
[3]
  LEAF RUST: +++ (+++ = 90-100% control at 100 ppm)
[4]
  RICE BLAST: - (- = 0-19% control at 400 ppm)
[5]
  POWD MDEW: ++ (++ = 90-100% control at 400 ppm)
[6]
  mortality at 400 ppm: 0%
[7]
  mortality at 400 ppm: 0%
[8]
  mortality at 24 ppm: 100%
[9]
  GRAY MOLD: - (- = 0-19% control at 400 ppm)

## CC(C)c1ccc(CCCOc2ncnc3ccccc23)cc1 [Example 143, 4-[3-[4-(1-methylethyl)phenyl]propoxy]quinazoline]
[1]
  DOWN MDEW: ++ (++ = 90-100% control at 400 ppm)
[2]
  mortality at 200 ppm: 0%
  mortality at 400 ppm: 0%
[3]
  LEAF RUST: - (- = 0-19% control at 400 ppm)
[4]
  RICE BLAST: ++ (++ = 90-100% control at 400 ppm)
[5]
  POWD MDEW: + (+ = 20-89% control at 400 ppm)
[6]
  mortality at 200 ppm: 0%
  mortality at 400 ppm: 0%
[7]
  mortality at 200 ppm: 80%
  mortality at 400 ppm: 0%
[8]
  mortality at 12 ppm: 0%
  mortality at 24 ppm: 0%
[9]
  GRAY MOLD: - (- = 0-19% control at 400 ppm)

## CC(COc1ncnc2ccccc12)c1ccccc1 (centres unmarked) [Example 60, 4-(2-phenylpropoxy)quinazoline]
[1]
  DOWN MDEW: ++ (++ = 90-100% control at 400 ppm)
[2]
  mortality at 400 ppm: 100%
[3]
  LEAF RUST: + (+ = 20-89% control at 400 ppm)
[4]
  RICE BLAST: +++ (+++ = 90-100% control at 100 ppm)
[5]
  POWD MDEW: + (+ = 20-89% control at 400 ppm)
[6]
  mortality at 400 ppm: 100%
[7]
  mortality at 400 ppm: 0%
[8]
  mortality at 24 ppm: 0%
[9]
  GRAY MOLD: - (- = 0-19% control at 400 ppm)

## COc1ccc(CCOc2ncnc3ccccc23)cc1 [Example 49, 4-[2-(4-methoxyphenyl)ethoxy]quinazoline]
[1]
  DOWN MDEW: +++ (+++ = 90-100% control at 100 ppm)
[2]
  mortality at 400 ppm: 80%
  SM RESULTS %: 90%
[3]
  LEAF RUST: +++ (+++ = 90-100% control at 100 ppm)
[4]
  RICE BLAST: +++ (+++ = 90-100% control at 100 ppm)
[5]
  POWD MDEW: +++ (+++ = 90-100% control at 100 ppm)
[6]
  mortality at 400 ppm: 0%
  MA RESULTS %: 100%
[7]
  mortality at 400 ppm: 0%
  SAW RESULTS %: 0%
[8]
  mortality at 24 ppm: 0%
  CRW RESULTS %: 0%
[9]
  GRAY MOLD: - (- = 0-19% control at 400 ppm)

## c1ccc2cc(CCOc3ncnc4ccccc34)ccc2c1 [Example 80, 4-[2-(2-naphthyl)ethoxy]quinazoline]
[1]
  DOWN MDEW: +++ (+++ = 90-100% control at 100 ppm)
[2]
  mortality at 400 ppm: 100%
[3]
  LEAF RUST: +++ (+++ = 90-100% control at 100 ppm)
[4]
  RICE BLAST: +++ (+++ = 90-100% control at 100 ppm)
[5]
  POWD MDEW: +++ (+++ = 90-100% control at 100 ppm)
[6]
  mortality at 400 ppm: 100%
[7]
  mortality at 400 ppm: 0%
[8]
  mortality at 24 ppm: 100%
[9]
  GRAY MOLD: - (- = 0-19% control at 400 ppm)

## Fc1cccc2c(OCCc3ccc(C(F)(F)F)cc3)ncnc12 [Example 118, 8-fluoro-4-[2-(4-trifluoromethyl)ethoxy]quinazoline]
[1]
  DOWN MDEW: +++ (+++ = 90-100% control at 100 ppm)
[2]
  mortality at 200 ppm: 100%
  mortality at 400 ppm: 0%
[3]
  LEAF RUST: +++ (+++ = 90-100% control at 100 ppm)
[4]
  RICE BLAST: +++ (+++ = 90-100% control at 100 ppm)
[5]
  POWD MDEW: +++ (+++ = 90-100% control at 100 ppm)
[6]
  mortality at 200 ppm: 100%
  mortality at 400 ppm: 0%
[7]
  mortality at 200 ppm: 60%
  mortality at 400 ppm: 100%
[8]
  mortality at 12 ppm: 0%
  mortality at 24 ppm: 0%
[9]
  GRAY MOLD: - (- = 0-19% control at 400 ppm)

## Fc1cccc2c(OCCc3ccc(Cl)cc3)ncnc12 [Example 55, 4-[2-(4-chlorophenyl)ethoxy]-8-fluoroquinazoline]
[1]
  DOWN MDEW: +++ (+++ = 90-100% control at 100 ppm)
[2]
  mortality at 200 ppm: 100%
  mortality at 400 ppm: 0%
[3]
  LEAF RUST: +++ (+++ = 90-100% control at 100 ppm)
[4]
  RICE BLAST: +++ (+++ = 90-100% control at 100 ppm)
[5]
  POWD MDEW: +++ (+++ = 90-100% control at 100 ppm)
[6]
  mortality at 200 ppm: 100%
  mortality at 400 ppm: 0%
[7]
  mortality at 200 ppm: 100%
  mortality at 400 ppm: 0%
[8]
  mortality at 12 ppm: 0%
  mortality at 24 ppm: 0%
[9]
  GRAY MOLD: - (- = 0-19% control at 400 ppm)

## COc1ccccc1CCOc1ncnc2ccccc12 [Example 14, 4-[2-(2-methoxyphenyl)ethoxy]quinazoline]
[1]
  DOWN MDEW: ++ (++ = 90-100% control at 400 ppm)
[2]
  mortality at 400 ppm: 0%
[3]
  LEAF RUST: + (+ = 20-89% control at 400 ppm)
[4]
  RICE BLAST: + (+ = 20-89% control at 400 ppm)
[5]
  POWD MDEW: + (+ = 20-89% control at 400 ppm)
[6]
  mortality at 400 ppm: 0%
[7]
  mortality at 400 ppm: 0%
[8]
  mortality at 24 ppm: 0%
[9]
  GRAY MOLD: - (- = 0-19% control at 400 ppm)

## CCOc1ccc(CCCOc2ncnc3ccccc23)cc1 [Example 158, 4-[3-(4-ethoxyphenyl)propoxy]quinazoline]
[1]
  DOWN MDEW: +++ (+++ = 90-100% control at 100 ppm)
[2]
  mortality at 200 ppm: 0%
  mortality at 400 ppm: 60%
[3]
  LEAF RUST: + (+ = 20-89% control at 400 ppm)
[4]
  RICE BLAST: ++ (++ = 90-100% control at 400 ppm)
[5]
  POWD MDEW: + (+ = 20-89% control at 400 ppm)
[6]
  mortality at 200 ppm: 0%
  mortality at 400 ppm: 40%
[7]
  mortality at 200 ppm: 0%
  mortality at 400 ppm: 0%
[8]
  mortality at 12 ppm: 0%
  mortality at 24 ppm: 0%
[9]
  GRAY MOLD: - (- = 0-19% control at 400 ppm)
